Experimental data reported in PubChem BioAssay AID1259407 (Chemical Carcinogenesis Research Information System (CCRIS), 2018).
The source made the active and inactive calls. The rule behind the calls is not given here.

Tested on: CCRIS mutagenicity, Ames/micronucleus/aberration tests
Test: CCRIS mutagenicity studies
Conditions: Test System: AMES SALMONELLA TYPHIMURIUM

Measured: mutagenic call

CCN(N=O)c1ccccc1
inactive: Strain/Indicator: TA98, Metabolic Activation: HAMSTER, LIVER, S-9, AROCLOR 1254, Method: PREINCUBATION inactive; negative | Strain/Indicator: TA98, Metabolic Activation: HAMSTER, LIVER, S-9, AROCLOR 1254, Method: STANDARD PLATE inactive; negative | Strain/Indicator: TA98, Metabolic Activation: HAMSTER, LIVER, S-9, Method: PREINCUBATION inactive; negative | Strain/Indicator: TA98, Metabolic Activation: HAMSTER, LIVER, S-9, Method: STANDARD PLATE inactive; negative | Strain/Indicator: TA98, Metabolic Activation: MOUSE, LIVER, S-9, AROCLOR 1254, Method: PREINCUBATION inactive; negative | Strain/Indicator: TA98, Metabolic Activation: MOUSE, LIVER, S-9, AROCLOR 1254, Method: STANDARD PLATE inactive; negative | Strain/Indicator: TA98, Metabolic Activation: MOUSE, LIVER, S-9, Method: PREINCUBATION inactive; negative | Strain/Indicator: TA98, Metabolic Activation: MOUSE, LIVER, S-9, Method: STANDARD PLATE inactive; negative | Strain/Indicator: TA98, Metabolic Activation: NONE, Method: PREINCUBATION inactive; negative | Strain/Indicator: TA98, Metabolic Activation: NONE, Method: STANDARD PLATE inactive; negative | Strain/Indicator: TA98, Metabolic Activation: RAT, LIVER, S-9, AROCLOR 1254, Method: PREINCUBATION inactive; negative | Strain/Indicator: TA98, Metabolic Activation: RAT, LIVER, S-9, AROCLOR 1254, Method: STANDARD PLATE inactive; negative | Strain/Indicator: TA98, Metabolic Activation: RAT, LIVER, S-9, Method: PREINCUBATION inactive; negative | Strain/Indicator: TA98, Metabolic Activation: RAT, LIVER, S-9, Method: STANDARD PLATE inactive; negative | Strain/Indicator: TA100, Metabolic Activation: HAMSTER, LIVER, S-9, AROCLOR 1254, Method: PREINCUBATION inactive; negative | Strain/Indicator: TA100, Metabolic Activation: HAMSTER, LIVER, S-9, AROCLOR 1254, Method: STANDARD PLATE inactive; negative | Strain/Indicator: TA100, Metabolic Activation: HAMSTER, LIVER, S-9, Method: PREINCUBATION inactive; negative | Strain/Indicator: TA100, Metabolic Activation: HAMSTER, LIVER, S-9, Method: STANDARD PLATE inactive; negative | Strain/Indicator: TA100, Metabolic Activation: MOUSE, LIVER, S-9, AROCLOR 1254, Method: PREINCUBATION inactive; negative | Strain/Indicator: TA100, Metabolic Activation: MOUSE, LIVER, S-9, AROCLOR 1254, Method: STANDARD PLATE inactive; negative | Strain/Indicator: TA100, Metabolic Activation: MOUSE, LIVER, S-9, Method: PREINCUBATION inactive; negative | Strain/Indicator: TA100, Metabolic Activation: MOUSE, LIVER, S-9, Method: STANDARD PLATE inactive; negative | Strain/Indicator: TA100, Metabolic Activation: NONE, Method: PREINCUBATION inactive; negative | Strain/Indicator: TA100, Metabolic Activation: NONE, Method: STANDARD PLATE inactive; negative | Strain/Indicator: TA100, Metabolic Activation: RAT, LIVER, S-9, AROCLOR 1254, Method: PREINCUBATION inactive; negative | Strain/Indicator: TA100, Metabolic Activation: RAT, LIVER, S-9, AROCLOR 1254, Method: STANDARD PLATE inactive; negative | Strain/Indicator: TA100, Metabolic Activation: RAT, LIVER, S-9, Method: PREINCUBATION inactive; negative | Strain/Indicator: TA100, Metabolic Activation: RAT, LIVER, S-9, Method: STANDARD PLATE inactive; negative | Strain/Indicator: TA1535, Metabolic Activation: HAMSTER, LIVER, S-9, AROCLOR 1254, Method: PREINCUBATION inactive; negative | Strain/Indicator: TA1535, Metabolic Activation: HAMSTER, LIVER, S-9, AROCLOR 1254, Method: STANDARD PLATE inactive; negative | Strain/Indicator: TA1535, Metabolic Activation: HAMSTER, LIVER, S-9, Method: PREINCUBATION inactive; negative | Strain/Indicator: TA1535, Metabolic Activation: HAMSTER, LIVER, S-9, Method: STANDARD PLATE inactive; negative | Strain/Indicator: TA1535, Metabolic Activation: MOUSE, LIVER, S-9, AROCLOR 1254, Method: PREINCUBATION inactive; negative | Strain/Indicator: TA1535, Metabolic Activation: MOUSE, LIVER, S-9, AROCLOR 1254, Method: STANDARD PLATE inactive; negative | Strain/Indicator: TA1535, Metabolic Activation: MOUSE, LIVER, S-9, Method: PREINCUBATION inactive; negative | Strain/Indicator: TA1535, Metabolic Activation: MOUSE, LIVER, S-9, Method: STANDARD PLATE inactive; negative | Strain/Indicator: TA1535, Metabolic Activation: NONE, Method: PREINCUBATION inactive; negative | Strain/Indicator: TA1535, Metabolic Activation: NONE, Method: STANDARD PLATE inactive; negative | Strain/Indicator: TA1535, Metabolic Activation: RAT, LIVER, S-9, AROCLOR 1254, Method: PREINCUBATION inactive; negative | Strain/Indicator: TA1535, Metabolic Activation: RAT, LIVER, S-9, AROCLOR 1254, Method: STANDARD PLATE inactive; negative | Strain/Indicator: TA1535, Metabolic Activation: RAT, LIVER, S-9, Method: PREINCUBATION inactive; negative | Strain/Indicator: TA1535, Metabolic Activation: RAT, LIVER, S-9, Method: STANDARD PLATE inactive; negative
